{"source": "patent US7041698B2", "about": "“Hepatitis C virus inhibitors” (Bristol-Myers Squibb Company, priority 2002, dated 2006)"}
{"biological_target": "T1, HCV NS3/4A protease complex (UniProt P27958, C1454S/C1711G, species not given)", "T1 construct": "fused on or other part: Three-lysine solubilising tail at the C-terminus of NS4A", "assay": "Recombinant HCV NS3/4A protease complex FRET peptide assay (strain not stated)", "format": "biochemical", "details": "HCV NS3/4A protease enzyme assay, read-out: IC50 range", "from_the_text": "(§1) Recombinant HCV NS3/4A Protease Complex FRET Peptide Assay\n(§2) The purpose of this in vitro assay was to measure the inhibition of HCV NS3 protease complexes, derived from the BMS, H77C or J416S strains, as described below, by compounds of the present invention. This assay provides an indication of how effective compounds of the present invention would be in inhibiting HCV proteolytic activity.\n(§3) Serum from an HCV-infected patient was obtained from Dr. T. Wright, San Francisco Hospital. An engineered full-length cDNA (compliment deoxyribonucleic acid) template of the HCV genome (BMS strain) was constructed from DNA fragments obtained by reverse transcription-PCR (RT-PCR) of serum RNA (ribonucleic acid) and using primers selected on the basis of homology between other genotype 1a strains. From the determination of the entire genome sequence, a genotype 1a was assigned to the HCV isolate according to the classification of Simmonds et al. (See P Simmonds, K A Rose, S Graham, S W Chan, F McOmish, B C Dow, E A Follett, P L Yap and H Marsden, J. Clin. Microbiol., 31(6), 1493–1503 (1993)). […] The infectious clones, H77C (1a genotype) and J4L6S (1b genotype) were obtained from R. Purcell (NIH) and the sequences are published in Genbank (AAB67036, see Yanagi, M., Purcell, R. H., Emerson, S. U. and Bukh, J. Proc. Natl. Acad. Sci. U.S.A. 94(16),8738–8743 (1997); AF054247, see Yanagi, M., St Claire, M., Shapiro, M., Emerson, S. U., Purcell, R. H. and Bukh, J, Virology 244 (1), 161–172. (1998)).\n(§4) The BMS, H77C and J4L6S strains were used for production of recombinant NS3/4A protease complexes. DNA encoding the recombinant HCV NS3/4A protease complex (amino acids 1027 to 1711) for these strains were manipulated as described by P. Gallinari et al. (see Gallinari P, Paolini C, Brennan D, Nardi C, Steinkuhler C, De Francesco R. Biochemistry. 38(17):5620–32, (1999)). Briefly, a three-lysine solubilizing tail was added at the 3′-end of the NS4A coding region. The cysteine in the P1 position of the NS4A-NS4B cleavage site (amino acid 1711) was changed to a glycine to avoid the proteolytic cleavage of the lysine tag. Furthermore, a cysteine to serine mutation was introduced by PCR at amino acid position 1454 to prevent the autolytic cleavage in the NS3 helicase domain. The variant DNA fragment was cloned in the pET21b bacterial expression vector (Novagen) and the NS3/4A complex was expressed in Escherichia. coli strain BL21 (DE3) (Invitrogen) following the protocol described by P. Gallinari et al. (see Gallinari P, Brennan D, Nardi C, Brunetti M, Tomei L, Steinkuhler C, De Francesco R., J. Virol. 72(8):6758–69 (1998)) with modifications. Briefly, NS3/4A expression was induced with 0.5 mM Isopropyl β-D-1-thiogalactopyranoside (IPTG) for 22 hr at 20° C. A typical fermentation (10L) yielded approximately 80 g of wet cell paste. The cells were resuspended in lysis buffer (10 mL/g) consisting of 25 mM N-(2-Hydroxyethyl)Piperazine-N′-(2-Ethane Sulfonic acid) (HEPES), pH7.5, 20% glycerol, 500 mM Sodium Chloride (NaCl), 0.5% Triton-X100, 1 ug/ml lysozyme, 5 mM Magnesium Chloride (MgCl2), lug/ml Dnasel, 5 mM β-Mercaptoethanol (βME), Protease inhibitor—Ethylenediamine Tetraacetic acid (EDTA) free (Roche), homogenized and incubated for 20 mins at 4° C. The homogenate was sonicated and clarified by ultra-centrifugation at 235000 g for 1 hr at 4° C. Imidazole was added to the supernatant to a final concentration of 15 mM and the pH adjusted to 8.0. The crude protein extract was loaded on a Nickel-Nitrilotriacetic acid (Ni-NTA) column pre-equilibrated with buffer B (25 mM HEPES, pH 8.0, 20% glycerol, 500 mM NaCl, 0.5% Triton-X100, 15 mM imidazole, 5 mM βME). The sample was loaded at a flow rate of 1 mL/min. The column was washed with 15 column volumes of buffer C (same as buffer B except with 0.2% Triton-X100). The protein was eluted with 5 column volumes of buffer D (same as buffer C except with 200 mM Imidazole). […]", "units": {"IC50": "µM"}}
{"compound": "C=CC1C[C@]1(NC(=O)[C@@H]1C[C@@H](OC(=O)Nc2c(CC)cccc2C(C)C)CN1C(=O)[C@@H](NC(=O)OC(C)(C)C)C(C)(C)C)C(=O)NS(=O)(=O)C1CC1", "note": "(stereo partly drawn) [Compound 22, BocNH-P3(t-BuGly)-P2(Hyp(O—CO(NH—(2-ethyl-6-isopropyl-phenyl))))-P1(1R,2S VinylAcca)—CONHSO2Cyclopropane]", "IC50": "1 to 10"}
{"compound": "C=CC1C[C@]1(NC(=O)[C@@H]1C[C@@H](OC(=O)Nc2c(C)cccc2C)CN1C(=O)[C@@H](NC(=O)OC(C)(C)C)C(C)(C)C)C(=O)NS(=O)(=O)C1CC1", "note": "(stereo partly drawn) [Compound 58, BocNH-P3(t-BuGly)-P2(Hyp(O—CO(NH—(2,6-dimethyl-phenyl))))-P1(1R,2S VinylAcca)—CONHSO2Cyclopropane]", "IC50": "1 to 10"}
{"compound": "C=CC1C[C@]1(NC(=O)[C@@H]1C[C@@H](OC(=O)Nc2c(C)cccc2CC)CN1C(=O)[C@@H](NC(=O)OC(C)(C)C)C(C)(C)C)C(=O)NS(=O)(=O)C1CC1", "note": "(stereo partly drawn) [Compound 61, BocNH-P3(t-BuGly)-P2(Hyp(O—CO(NH—(2-ethyl-6-methyl))))-P1(1R,2S VinylAcca)—CONHSO2Cyclopropane]", "IC50": "1 to 10"}
{"compound": "C=CC1C[C@]1(NC(=O)[C@@H]1C[C@@H](OC(=O)Nc2c(C)nn(C)c2C)CN1C(=O)[C@@H](NC(=O)OC(C)(C)C)C(C)(C)C)C(=O)NS(=O)(=O)C1CC1", "note": "(stereo partly drawn) [Compound 68, BocNH-P3(t-BuGly)-P2(Hyp(O—CO(NH—(1,3,5-Trimethyl-pyrazol-4-yl))))-P1(1R,2S VinylAcca)—CONHSO2Cyclopropane]", "IC50": "1 to 10"}
{"compound": "C=CC1CC1(NC(=O)[C@@H]1C[C@@H](OC(=O)Nc2c(F)cccc2F)CN1C(=O)[C@@H](NC(=O)OC(C)(C)C)C(C)(C)C)C(=O)O", "note": "(stereo partly drawn) [Compound 102, BocNH-P3(t-BuGly)-P2(Hyp(O—CO(NH—(2,6-difluoro-phenyl))))-P1((1R,2S)/(1S,2R) VinylAcca)—CO2H]", "IC50": "> 10"}
{"compound": "C=CC1CC1(NC(=O)[C@@H]1C[C@@H](OC(=O)NCc2ccccc2C)CN1C(=O)[C@@H](NC(=O)OC(C)(C)C)C(C)(C)C)C(=O)O", "note": "(stereo partly drawn) [Compound 103, BocNH-P3(t-BuGly)-P2(Hyp(O—CO(NH—(2-methyl-benzyl))))-P1((1R,2S)/(1S,2R) VinylAcca)—CO2H]", "IC50": "> 10"}
{"compound": "C=CC1CC1(NC(=O)[C@@H]1C[C@@H](OC(=O)N[C@H](C(=O)OC)[C@@H](C)CC)CN1C(=O)[C@@H](NC(=O)OC(C)(C)C)C(C)(C)C)C(=O)O", "note": "(stereo partly drawn) [Compound 104, BocNH-P3(t-BuGly)-P2(Hyp(O—CO(NH-2-[(2S,3S)-3-methylvaleric acid methyl ester])))-P1((1R,2S)/(1S,2R) VinylAcca)—CO2H]", "IC50": "1 to 10"}
{"compound": "C=CC1CC1(NC(=O)[C@@H]1C[C@@H](OC(=O)NC(C)c2cccc3ccccc23)CN1C(=O)[C@@H](NC(=O)OC(C)(C)C)C(C)(C)C)C(=O)O", "note": "(stereo partly drawn) [Compound 105, BocNH-P3(t-BuGly)-P2(Hyp(O—CO(NH-1-(R)-1-naphthylethyl)))-P1((1R,2S)/(1S,2R) VinylAcca)—CO2H]", "IC50": "> 10"}
{"compound": "C=CC1CC1(NC(=O)[C@@H]1C[C@@H](OC(=O)Nc2ccccc2)CN1C(=O)[C@@H](NC(=O)OC(C)(C)C)C(C)(C)C)C(=O)O", "note": "(stereo partly drawn) [Compound 106, BocNH-P3(t-BuGly)-P2(Hyp(O—CO(NH-phenyl)))-P1((1R,2S)/(1S,2R) VinylAcca)—CO2H]", "IC50": "> 10"}
{"compound": "C=CC1CC1(NC(=O)[C@@H]1C[C@@H](OC(=O)Nc2cc(C)ccc2F)CN1C(=O)[C@@H](NC(=O)OC(C)(C)C)C(C)(C)C)C(=O)O", "note": "(stereo partly shown) [Compound 107]", "IC50": "> 10"}
{"compound": "C=CC1CC1(NC(=O)[C@@H]1C[C@@H](OC(=O)NCCc2cccs2)CN1C(=O)[C@@H](NC(=O)OC(C)(C)C)C(C)(C)C)C(=O)O", "note": "(stereo partly drawn) [Compound 108, BocNH-P3(t-BuGly)-P2(Hyp(O—CO(NH—(2-thiophen-2-yl-ethyl))))-P1((1R,2S)/(1S,2R) VinylAcca)—CO2H]", "IC50": "> 10"}
{"compound": "C=CC1CC1(NC(=O)[C@@H]1C[C@@H](OC(=O)Nc2cccc(C(F)(F)F)c2)CN1C(=O)[C@@H](NC(=O)OC(C)(C)C)C(C)(C)C)C(=O)O", "note": "(stereo partly drawn) [Compound 109, BocNH-P3(t-BuGly)-P2(Hyp(O—CO(NH—(3-trifluoromethyl-phenyl))))-P1((1R,2S)/(1S,2R) VinylAcca)—CO2H]", "IC50": "> 10"}
{"biological_target": "T1, HCV NS3/4A protease complex", "assay": "Recombinant HCV NS3/4A protease complex FRET peptide assay (strain not stated)", "format": "biochemical", "details": "read-out: IC50 range, HCV NS3/4A protease enzyme assay", "from_the_text": "as §1, §2, §3, §4", "units": {"IC50": "µM"}}
{"compound": "C=CC1C[C@]1(NC(=O)[C@@H]1C[C@@H](OC(=O)Nc2c(CC)cccc2CC)CN1C(=O)[C@@H](NC(=O)OC(C)(C)C)C(C)(C)C)C(=O)NS(=O)(=O)C1CC1", "note": "(stereo partly drawn) [Compound 62, BocNH-P3(t-BuGly)-P2(Hyp(O—CO(NH—(2,6-diethyl-phenyl))))-P1(1R,2S VinylAcca)—CONHSO2Cyclopropane]", "IC50": "1 to 10"}
